What was measured:
[1] = system: HCT-116; assay: MTT cell viability assay in HCT-116 cells; type: cell-based; conditions: 72 h
Description: FIG. 2A is a graph comparison of IC50 of Uttroside B in a panel of cancer cells of different origin. The cancer cell lines HeLa, A375, HepG2, MDA-MB-231, HL 60, A549 and HCT116 were treated with Uttroside B as indicated, incubated for 72 h and the cell viability was assessed by MTT assay. FIG. 2B is a graph showing dose dependent effect of Uttroside B in the liver cancer cell lines and in normal immortalized hepatocytes. The liver cancer cell lines HepG2, Hep3B, SKHEP-1, Huh-7 and normal hepatocytes (Chang liver), were treated with Uttroside B incubated for 72 h and the cell viability was assessed by MTT assay. FIG. 2C is a graph comparison of IC50 of Uttroside B with sorafenib. HepG2 cells were treated with Uttroside B as indicated, incubated for 72 h, and the cell viability was assessed by MTT assay. […] The clones developed were counted and plotted as a graph. Colony containing more than four cells was counted as one clone. […]
MTT [3-(4,5-dimethylthiazole-2-yl)-2,5-diphenyltetrazolium bromide] assay is a standard colorimetric assay, suitable for analyzing proliferation, viability, and cytotoxicity. […] At the end of incubation, the optical density was measured at 570 nm using ELISA plate reader (Bio-Rad). The relative cell viability in percentage was calculated as (A570 of treated samples/A570 of untreated samples)×100. […]

[2] = system: autophagy related proteins in Hep3B cells; assay: Western blot of autophagy related proteins in Hep3B cells; type: cell-based; conditions: time dependent
Description: Western blot analysis. Approximately 0.5×10^6 cells were grown on 60 mm culture plates and exposed to drugs as indicated for the desired time. The cells were then scraped out, washed in ice cold 1× PBS and pelleted down at 13000 rpm for 2 min. The pelleted cells were suspended in 150 μL of ice-cold whole cell lysis buffer[(20 mMTris of pH 7.4, 250 mM NaCl, 2 mM EDTA, 0.1% Triton, 1 mM DTT (1,4-dithiothreitol), 0.5 mM PMSF, 4 mM sodium orthovanadate, aprotinin (5 mg m/L) and leupeptin (5 mg m/L)] and kept in ice for 30 min, with intermittent vortexing every 5 min. After incubation, the lysate was centrifuged at 13000 rpm for 10 min at 4° C. and the supernatant was collected. The total protein content in the lysate was estimated by Bradford's method, and was then denatured by boiling with 5× loading dye before separating the proteins by SDSpolyacrylamidegel electrophoresis (SDS-PAGE). […]

[3] = system: PC-12; conditions: literature ref 13; read-out: IC50, cytotoxicity against PC-12; cited from earlier work

**Q.** What does the source list for `C[C@H](CC[C@@]1(O)O[C@H]2C[C@H]3[C@@H]4CC[C@H]5C[C@@H](O[C@@H]6O[C@H](CO)[C@H](O[C@@H]7O[C@H](CO)[C@@H](O)[C@H](O[C@@H]8OC[C@@H](O)[C@H](O)[C@H]8O)[C@H]7O[C@@H]7O[C@H](CO)[C@@H](O)[C@H](O)[C@H]7O)[C@H](O)[C@H]6O)CC[C@]5(C)[C@H]4CC[C@]3(C)[C@H]2[C@@H]1C)CO[C@@H]1O[C@H](CO)[C@@H](O)[C@H](O)[C@H]1O` [Uttroside B]?
**A.** IC50 [1]: 6 µM; expression of autophagy related proteins, Hep3B [2]: induced Atg5, Atg7 and LC3 in a time dependent manner; IC50 [3]: 1.2 µM

From patent publication US11607422B2, “Uttroside B and derivatives thereof as therapeutics for hepatocellular carcinoma” (Rajiv Gandhi Centre for Biotechnology, an Autonomous …, priority 2016, dated 2023)
